Test results taken from US7427625B2, “Substituted thiatriazaacenaphthylene-6-carbonitrile kinase inhibitors” (Janssen Pharmaceutica, N.V., priority 2006, dated 2008).

Legend:
EGFR = target: T1, EGFR (Homo sapiens, UniProt P00533); assay: EGFR Kinase Assay; format: biochemical; settings: for inhibition at 2 µM: test concentration of 2 μM, read-out: EGFR percent inhibition
T1 construct: The intracellular portion of EGFR started at nucleotide 2189 (corresponding to amino acid 667) and ended at the termination codon; made in house; host or cells: Sf9 insect cells (baculovirus)
Excerpt: The EGFR kinase used was a fusion of Glutathione-S-Transferase (GST) and a PCR amplified intracellular portion of EGFR (NM_005228). The intracellular portion of EGFR started at nucleotide 2189 (corresponding to amino acid 667) and ended at the termination codon. The portion was PCR amplified with primers that added the lambda attB sequences to each end, recombined into an entry vector, then into a GST destination vector (as described in Gateway Technologies Manual by Invitrogen Corporation, Carlsbad, Calif.).
The destination vector was recombined in the DH10BAC strain of bacteria to produce a bacmid. The bacmid was transfected into Sf 9 cells and the supernatant containing the baculovirus was collected. The GSTEGFR protein was purified using large cultures of Sf 9 cells infected with stock virus. After an appropriate period of time, the cells were collected and lysed. The GSTEGFR was then purified from the lysate on Glutathione-Sepharose columns (as described by Amersham Biosciences, Buckinghamshire, United Kingdom).
The EGFR substrate was prepared by biotinylating polyGluTyr (128 mg) (Sigma, St. Louis, Mo.) in a 1×PBS buffer incubated together with a 12-fold molar excess of Sulfo-NHS-LC-Biotin on ice for at least 2 hrs. The free biotin was separated from the biotinylated polyGluTyr on a gel filtration column.
A mixture of a 10× kinase buffer (500 mM Tris at pH 8.0, 100 mM Magnesium Chloride and 1 mM Sodium Vanadate), DTT (1 mM final from 500 mM stock), ATP (5 μM final from 10 mM stock), biotinylated polyGluTyr (10 μg/μL stock), γ-^33P ATP (10 μCi/μL stock) and water was added to each well (90 μL/well) of a Streptavidin Flashplate (Perkin Elmer, Wellesley, Mass.).
Test compound in 100% DMSO (2 μL) was added to the appropriate wells. Diluted GSTEGFR (1:300 dilution in 50 mM Tris at pH 8.0 and 0.1% bovine serum albumin) (10 μL) was added to the wells to initiate the reactions.
The plates were incubated at 30° C. for 1 hr with shaking. The reacted contents were removed and the plates were sequentially washed three times with a 1×PBS stop buffer (300 μL without Magnesium and Calcium) and 100 mM EDTA. After the final wash, the same stop buffer (200 μL) was added to the wells. The plates were then sealed and read on the TopCount scintillation counter.
Test compounds were assayed in triplicate at 16 concentrations at half-log dilutions starting at 200 uM. A maximum and minimum signal for the assay was determined on each plate. The percent inhibition of a test compound was calculated according to the formula
For a series of test concentrations, the IC50 was derived by graphing percent inhibition against the log of the concentrations tested for a given compound. For those compounds without an IC50, the percent inhibition results are shown at a test concentration of 2 μM.

VEGF-R2 = target: T2, VEGF-R2 (Rattus norvegicus, UniProt O08775); assay: VEGF-R2 Screening Assay; format: biochemical; settings: for inhibition at 1 µM: test concentration of 1 μM, read-out: VEGF-R2 percent inhibition
T2 construct: polyhistidine (N)
Description: (§1) A kinase reaction mixture was prepared containing 50 mM Tris-HCl at pH 8, 10 mM, MgCl20.1 mM […], 1 mM DTT, 10 μM ATP, 0.025 μM biotinylated histone-H1 peptide substrate and 0.2 μCuries per well ^33P-γ-ATP (2000-3000 Ci/mmol). 70 μL of the kinase reaction mixture was dispensed into the well of a Streptavidin FlashPlate.
(§2) Test compound stock in 100% DMSO (1 μL) was added to the wells resulting in a final concentration of 1% DMSO in the reaction with a 100 μL final reaction volume. Each enzyme was diluted in 50 mM Tris-HCl pH=8.0, 0.1% BSA and 30 μL was added to each well to initiate the reaction. The reaction was incubated for one hour at 30° C. At the end of the 1 hr incubation, the reaction was terminated by aspirating the mixture from the plate and washing the wells twice with PBS containing 100 mM EDTA. The biotinylated peptide substrate became immobilized on the Flashplate^198 and the incorporation of ^33P-γ-ATP was measured by reading the plate on a scintillation counter. Inhibition of the enzymatic activity was measured by observing a reduced amount of ^33P-γ-ATP incorporated into the immobilized peptide.
The VEGF-R2 enzyme is a fusion protein containing a polyhistidine tag at the N terminus followed by amino acids 786 to 1343 of the rat VEGF-R2 kinase domain (Accession number U93306). The assay used 150 ng of the N-terminal biotinylated peptide biotin-KHKKLAEGSAYEEV-amide (VEGF-R2) per well.
(§3) The IC50 was derived according to the procedure described in Example 2. For those compounds without an IC50, the percent inhibition results are shown at a test concentration of 1 μM.

Aurora-A = target: T3, Aurora-A (Mus musculus, UniProt P97477); assay: Aurora-A Screening Assay; format: biochemical, murine; settings: for inhibition at 1 µM: test concentration of 1 μM, read-out: Aurora-A percent inhibition
T3 construct: followed by the full length protein encoding the murine Aurora-A; polyhistidine (N); made in house; host or cells: sf9 insect cells
T3 sequence (P97477 1-395): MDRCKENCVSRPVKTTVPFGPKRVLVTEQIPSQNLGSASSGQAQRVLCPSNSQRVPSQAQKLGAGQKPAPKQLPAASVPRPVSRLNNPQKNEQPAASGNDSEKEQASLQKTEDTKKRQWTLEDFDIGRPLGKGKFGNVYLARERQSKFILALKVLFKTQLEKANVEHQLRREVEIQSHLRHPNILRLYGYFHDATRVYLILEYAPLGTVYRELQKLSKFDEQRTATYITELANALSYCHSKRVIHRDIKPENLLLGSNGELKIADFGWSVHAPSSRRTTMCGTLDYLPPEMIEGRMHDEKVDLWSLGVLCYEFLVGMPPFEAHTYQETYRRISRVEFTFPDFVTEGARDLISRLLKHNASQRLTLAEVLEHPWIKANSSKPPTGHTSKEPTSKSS
Description: as §1, §2
Aurora-A is a fusion protein containing a polyhistidine tag at the N terminus followed by the full length protein encoding the murine Aurora-A (Accession number GB BC014711) expressed and purified from sf9 insect cells. The assay used 400 ng of the N-terminal biotinylated peptide biotin-GRTGRRNSI-amide (Aurora-A) per well.
as §3

HER-2 = target: T4, HER-2 (Homo sapiens, UniProt P04626); assay: HER-2 Kinase Assay; format: biochemical; settings: for inhibition at 1 µM: test concentration of 1 μM, read-out: HER-2 percent inhibition
T4 construct: the nucleotides encoding amino acids 679 to 1255 of HER-2; purchased Proqinase (Freiburg, Germany)
Description: HER-2 kinase was purified at Proqinase (Freiburg, Germany) from a construct that consisted of a fusion of GST (Glutathione-S-Transferase), HIS6-Thrombin and the nucleotides encoding amino acids 679 to 1255 of HER-2.
A mixture of a 10× kinase reaction buffer (600 mM Hepes at pH 7.5, 30 mM Magnesium Chloride, 0.03 mM Sodium Vanadate and 500 μg/mL PEG 20,000), DTT (1.2 mM final from a 10 mM stock), ATP (1 μM from a 10 mM stock), biotinylated polyGluTyr (1.5 ng/μL final from stock of 1 μg/μL prepared by Upstate Biotechnologies, Lake Placid, N.Y.), Manganese Chloride (3 mM final from a 1 M stock), γ-^33P-ATP (10 μCi/μL stock) and water (70 μL/well) was added to each well of a Streptavidin Flashplate (Cat. #SMP103, NEN, Boston, Mass.).
Test compound stock (1 μL) was added to the appropriate wells. Diluted GSTHER2 kinase (6.7 ng/μL diluted into 50 mM Tris-HCl at pH 8.0 and 0.1% bovine serum albumin) (30 μL) was added (total volume of 200 ng/well) to initiate the reactions.
The reaction plates were incubated at 30° C. for 1 hr. The reaction was terminated by aspiring the reaction mixture from the plate wells and washing the wells three times with a 1×PBS stop buffer (300 μL) and 100 mM EDTA. After the final wash, the same stop buffer (200 μL) was again added to the wells. The plates were then sealed and read on the TopCount scintillation counter.
as §3

T1 sequence (P00533 669-1210 limits assumed): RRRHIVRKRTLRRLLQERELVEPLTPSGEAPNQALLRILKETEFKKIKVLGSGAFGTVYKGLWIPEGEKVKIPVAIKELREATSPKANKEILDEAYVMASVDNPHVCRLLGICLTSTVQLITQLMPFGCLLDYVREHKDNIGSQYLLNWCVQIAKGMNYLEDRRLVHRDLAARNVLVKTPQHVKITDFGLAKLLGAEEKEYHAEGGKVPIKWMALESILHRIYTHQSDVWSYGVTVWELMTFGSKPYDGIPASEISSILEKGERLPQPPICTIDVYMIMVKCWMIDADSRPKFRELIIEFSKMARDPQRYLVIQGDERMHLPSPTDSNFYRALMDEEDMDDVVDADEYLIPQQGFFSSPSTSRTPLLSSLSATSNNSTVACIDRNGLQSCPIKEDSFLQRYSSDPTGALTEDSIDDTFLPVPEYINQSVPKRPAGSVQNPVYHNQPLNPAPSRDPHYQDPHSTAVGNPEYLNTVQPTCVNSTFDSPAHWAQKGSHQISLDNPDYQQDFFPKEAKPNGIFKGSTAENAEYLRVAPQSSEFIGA
T2 sequence (O08775 786-1343): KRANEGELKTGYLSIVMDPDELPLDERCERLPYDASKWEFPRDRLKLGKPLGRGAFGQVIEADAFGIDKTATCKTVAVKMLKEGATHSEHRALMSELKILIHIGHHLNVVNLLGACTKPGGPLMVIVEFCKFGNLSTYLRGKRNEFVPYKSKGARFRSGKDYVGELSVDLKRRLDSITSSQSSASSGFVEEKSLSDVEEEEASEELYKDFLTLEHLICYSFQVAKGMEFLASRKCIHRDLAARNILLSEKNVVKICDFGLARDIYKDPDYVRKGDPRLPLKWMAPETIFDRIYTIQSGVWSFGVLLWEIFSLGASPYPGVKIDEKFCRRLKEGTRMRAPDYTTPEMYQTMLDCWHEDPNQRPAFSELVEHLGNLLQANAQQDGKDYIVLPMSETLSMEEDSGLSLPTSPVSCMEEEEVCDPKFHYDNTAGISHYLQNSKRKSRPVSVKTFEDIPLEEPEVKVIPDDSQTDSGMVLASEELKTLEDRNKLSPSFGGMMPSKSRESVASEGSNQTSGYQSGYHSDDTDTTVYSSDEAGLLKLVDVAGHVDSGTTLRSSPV
T4 sequence (P04626 679-1255): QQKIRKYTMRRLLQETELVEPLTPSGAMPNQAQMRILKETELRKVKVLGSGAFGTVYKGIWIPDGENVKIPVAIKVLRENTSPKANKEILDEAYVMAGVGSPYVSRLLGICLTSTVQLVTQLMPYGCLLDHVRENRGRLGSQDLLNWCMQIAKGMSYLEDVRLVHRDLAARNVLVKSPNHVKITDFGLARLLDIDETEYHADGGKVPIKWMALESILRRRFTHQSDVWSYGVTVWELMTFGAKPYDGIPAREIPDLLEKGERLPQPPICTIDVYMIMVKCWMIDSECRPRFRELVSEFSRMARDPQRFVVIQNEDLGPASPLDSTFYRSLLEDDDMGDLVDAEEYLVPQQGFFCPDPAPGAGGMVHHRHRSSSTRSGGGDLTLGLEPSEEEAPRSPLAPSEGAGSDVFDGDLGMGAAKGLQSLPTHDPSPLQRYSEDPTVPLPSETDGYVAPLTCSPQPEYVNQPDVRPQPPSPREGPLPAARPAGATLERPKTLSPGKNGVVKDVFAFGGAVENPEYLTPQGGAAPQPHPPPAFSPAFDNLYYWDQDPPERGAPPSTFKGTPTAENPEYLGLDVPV

CCOC(=O)c1sc2nc(O)c(C#N)c3c2c1NC(=O)N3c1ccc(Oc2ccccc2)cc1 [Cpd 52, 6-cyano-7-hydroxy-4-oxo-5-(4-phenoxy-phenyl)-4,5-dihydro-3H-1-thia-3,5,8-triaza-acenaphthylene-2-carboxylic acid ethyl ester]
IC50 (EGFR): 16.9 nM | IC50 (VEGF-R2): > 100000 nM | IC50 (Aurora-A): > 100000 nM | IC50 (HER-2): > 10000 nM

N#Cc1cnc2sc(C(=O)Nc3ccccn3)c3c2c1N(c1c(Cl)ccc2c1OCO2)C(=O)N3 [Cpd 37, 5-(5-chloro-benzo[1,3]dioxol-4-yl)-6-cyano-4-oxo-4,5-dihydro-3H-1-thia-3,5,8-triaza-acenaphthylene-2-carboxylic acid pyridin-2-ylamide]
inhibition at 2 µM (EGFR): 10% | inhibition at 1 µM (VEGF-R2): -22% | inhibition at 1 µM (Aurora-A): 3% | inhibition at 1 µM (HER-2): 11%

N#Cc1cnc2sc(C(=O)Nc3cc[nH]n3)c3c2c1N(c1c(Cl)ccc2c1OCO2)C(=O)N3 [Cpd 33, 5-(5-chloro-benzo[1,3]dioxol-4-yl)-6-cyano-4-oxo-4,5-dihydro-3H-1-thia-3,5,8-triaza-acenaphthylene-2-carboxylic acid (1H-pyrazol-3-yl)-amide]
IC50 (EGFR): 1220 nM | inhibition at 1 µM (VEGF-R2): 18% | inhibition at 1 µM (Aurora-A): 29% | inhibition at 1 µM (HER-2): 37%

N#Cc1cnc2sc(C(=O)Nc3ccncc3)c3c2c1N(c1c(Cl)ccc2c1OCO2)C(=O)N3 [Cpd 40, 5-(5-chloro-benzo[1,3]dioxol-4-yl)-6-cyano-4-oxo-4,5-dihydro-3H-1-thia-3,5,8-triaza-acenaphthylene-2-carboxylic acid pyridin-4-ylamide]
inhibition at 2 µM (EGFR): 30% | inhibition at 1 µM (VEGF-R2): 9% | inhibition at 1 µM (Aurora-A): 15% | inhibition at 1 µM (HER-2): 0%

N#Cc1cnc2sc(C(=O)Nc3ccc(CN4CCC(O)CC4)cc3)c3c2c1N(c1c(Cl)ccc2c1OCO2)C(=O)N3 [Cpd 23, 5-(5-chloro-benzo[1,3]dioxol-4-yl)-6-cyano-4-oxo-4,5-dihydro-3H-1-thia-3,5,8-triaza-acenaphthylene-2-carboxylic acid [4-(4-hydroxy-piperidin-1-ylmethyl)-phenyl]-amide]
IC50 (EGFR): 598 nM | inhibition at 1 µM (VEGF-R2): 28% | inhibition at 1 µM (Aurora-A): 16% | inhibition at 1 µM (HER-2): 44%

CCOC(=O)c1sc2nc(Cl)c(C#N)c3c2c1NC(=O)N3c1ccc(Oc2ccccc2)cc1 [Cpd 53, 7-chloro-6-cyano-4-oxo-5-(4-phenoxy-phenyl)-4,5-dihydro-3H-1-thia-3,5,8-triaza-acenaphthylene-2-carboxylic acid ethyl ester]
inhibition at 2 µM (EGFR): 2% | IC50 (VEGF-R2): > 100000 nM | IC50 (Aurora-A): > 100000 nM | IC50 (HER-2): > 100000 nM

C[C@@H]1CN(Cc2ccc(NC(=O)c3sc4ncc(C#N)c5c4c3NC(=O)N5c3c(Cl)ccc4c3OCO4)cc2)C[C@H](C)O1 [Cpd 25, 5-(5-chloro-benzo[1,3]dioxol-4-yl)-6-cyano-4-oxo-4,5-dihydro-3H-1-thia-3,5,8-triaza-acenaphthylene-2-carboxylic acid [4-(2,6-cis-dimethyl-morpholin-4-ylmethyl)-phenyl]-amide]
inhibition at 2 µM (EGFR): 24% | inhibition at 1 µM (VEGF-R2): 0% | inhibition at 1 µM (Aurora-A): 18% | inhibition at 1 µM (HER-2): 3%

COc1cc(NC(=O)c2sc3ncc(C#N)c4c3c2NC(=O)N4c2c(Cl)ccc3c2OCO3)ccc1OCCN1CCCCC1 [Cpd 31, 5-(5-chloro-benzo[1,3]dioxol-4-yl)-6-cyano-4-oxo-4,5-dihydro-3H-1-thia-3,5,8-triaza-acenaphthylene-2-carboxylic acid [3-methoxy-4-(2-piperidin-1-yl-ethoxy)-phenyl]-amide]
IC50 (EGFR): 513 nM | inhibition at 1 µM (VEGF-R2): 17% | inhibition at 1 µM (Aurora-A): 22% | inhibition at 1 µM (HER-2): 35%

N#Cc1cnc2sc(C(=O)Nc3ccc(NCCCN4CCOCC4)nc3)c3c2c1N(c1c(Cl)ccc2c1OCO2)C(=O)N3 [Cpd 30, 5-(5-chloro-benzo[1,3]dioxol-4-yl)-6-cyano-4-oxo-4,5-dihydro-3H-1-thia-3,5,8-triaza-acenaphthylene-2-carboxylic acid [6-(3-morpholin-4-yl-propylamino)-pyridin-3-yl]-amide]
inhibition at 2 µM (EGFR): 11% | inhibition at 1 µM (VEGF-R2): 12% | inhibition at 1 µM (Aurora-A): 22% | inhibition at 1 µM (HER-2): 35%

N#Cc1cnc2sc(C(=O)Nc3ncccn3)c3c2c1N(c1c(Cl)ccc2c1OCO2)C(=O)N3 [Cpd 35, 5-(5-chloro-benzo[1,3]dioxol-4-yl)-6-cyano-4-oxo-4,5-dihydro-3H-1-thia-3,5,8-triaza-acenaphthylene-2-carboxylic acid pyrimidin-2-ylamide]
inhibition at 2 µM (EGFR): 42% | inhibition at 1 µM (VEGF-R2): 22% | inhibition at 1 µM (Aurora-A): 16% | IC50 (HER-2): > 1000 nM
